Among the test systems are MOLT-4 leukemia; TK-10 renal; LOX IMVI melanoma; SNB-75 CNS; HL-60(TB) leukemia; COLO 205 colon; SF-295 CNS; NCI-H522 lung; A498 renal.
What all share (test): growth of human tumour cells (NCI), 48 h

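1) Cells in 96-well plates. 2) Compound, 48 h, 5 concentrations. 3) Linear interpolation between surrounding doses. 4) Unreached endpoint = highest concentration. TGI is the concentration that stops growth completely.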

As for `Cc1cc(S(=O)(=O)O)c(NC(=O)C(=O)Cc2cc(=O)oc3cc(O)ccc23)cc1Cl`, the TGI with MOLT-4 leukemia, in the test with TK-10 renal, in the test on LOX IMVI melanoma, in the test on SNB-75 CNS, in the test with HL-60(TB) leukemia and in the test with COLO 205 colon was over 100 µM in each case. The TGI in the test with SF-295 CNS, in the test on NCI-H522 lung and in the test with A498 renal was over 100 µM in each case.
Regarding `CCC1CCc2c(c(=O)oc3c2cc(OC)c2cccc(OC)c23)C1` (stereo unspecified), the TGI in the test on MOLT-4 leukemia was over 100 µM; in the test on TK-10 renal it was over 100 µM; with SNB-75 CNS, over 100 µM; in the test on HL-60(TB) leukemia, 69.6 µM; in the test with COLO 205 colon, over 100 µM; in the test on SF-295 CNS, over 100 µM. Further, the TGI in the test on NCI-H522 lung and in the test with A498 renal was over 100 µM each time.
With `O=C1OCC2C1C1c3ccccc3C(O)c3ccccc3C21` (stereo unspecified), the TGI with MOLT-4 leukemia, in the test on TK-10 renal, with LOX IMVI melanoma, in the test with SNB-75 CNS, in the test with HL-60(TB) leukemia and in the test on COLO 205 colon was over 100 µM throughout. Besides, the TGI in the test with SF-295 CNS and in the test with A498 renal was over 100 µM in each case.
Turning to `CC(C)C(=O)NS(=O)(=O)c1ccccc1`, the TGI in the test on MOLT-4 leukemia, with TK-10 renal, in the test on LOX IMVI melanoma, with SNB-75 CNS, in the test with HL-60(TB) leukemia and in the test with COLO 205 colon was over 100 µM each time. Besides, the TGI in the test on SF-295 CNS, in the test with NCI-H522 lung and in the test with A498 renal was over 100 µM throughout.
On to `Cc1c(/C=N/NC(=O)c2ccc(Cl)cc2)c(=O)n(-c2ccccc2)n1C`, for which the TGI in the test with MOLT-4 leukemia, in the test with TK-10 renal, in the test with LOX IMVI melanoma, in the test with SNB-75 CNS, in the test on HL-60(TB) leukemia and in the test with COLO 205 colon was over 100 µM throughout. The TGI with SF-295 CNS and in the test on NCI-H522 lung was over 100 µM throughout.
As to `O=P1(c2ccccc2)CCCCC1`, the TGI with MOLT-4 leukemia, in the test with TK-10 renal, in the test with LOX IMVI melanoma, in the test on SNB-75 CNS, in the test with HL-60(TB) leukemia and in the test on COLO 205 colon was over 100 µM throughout. In addition, the TGI in the test on SF-295 CNS and with A498 renal was over 100 µM in each case.
With `CC(C)C(=O)Nc1nc2c(ncn2C2OC(CO)C(O)C2O)c(=O)[nH]1` (stereo unspecified), the TGI in the test on MOLT-4 leukemia, in the test on TK-10 renal, in the test with LOX IMVI melanoma, in the test on SNB-75 CNS, in the test on HL-60(TB) leukemia and in the test with COLO 205 colon was over 100 µM in each case. For the same molecule, the TGI with SF-295 CNS, in the test on NCI-H522 lung and in the test with A498 renal was over 100 µM each time.
Regarding `O=S(=O)(c1ccccc1)C1CN2OC1(S(=O)(=O)c1ccccc1)CC2c1ccc(Br)cc1` (stereo unspecified), the TGI in the test on MOLT-4 leukemia is over 100 µM; in the test with TK-10 renal, over 100 µM; in the test with LOX IMVI melanoma, over 100 µM; in the test on SNB-75 CNS, 22.1 µM; with HL-60(TB) leukemia, over 100 µM; with SF-295 CNS it was over 100 µM. Besides, the TGI in the test on NCI-H522 lung and with A498 renal was over 100 µM each time.
On to `O=[N+]([O-])c1ccc(N2N=C(c3ccc(NCc4nc5ccccc5[nH]4)cc3)CC2c2ccco2)cc1` (stereo unspecified), for which the TGI was 31.3 µM in the test on MOLT-4 leukemia; over 100 µM in the test on TK-10 renal; 41.6 µM in the test on LOX IMVI melanoma; over 100 µM with SNB-75 CNS; 48.9 µM with HL-60(TB) leukemia; 77.9 µM in the test on COLO 205 colon. Besides, the figures for the TGI with SF-295 CNS, in the test on NCI-H522 lung and with A498 renal were 74.7 µM, 54 µM and over 100 µM, respectively.
For the molecule `COc1cc2c(OC)cc1CSCc1sc(C)c(c1Br)CSC2`, the TGI with MOLT-4 leukemia, in the test on TK-10 renal, in the test on LOX IMVI melanoma, with SNB-75 CNS, in the test with HL-60(TB) leukemia and in the test with COLO 205 colon was over 100 µM in each case. In addition, the TGI in the test on SF-295 CNS and in the test on A498 renal was over 100 µM in each case.
For the molecule `CC1COC(C)(C)P(=O)(c2ccccc2)C1` (stereo unspecified), the TGI with MOLT-4 leukemia, in the test on TK-10 renal, in the test with LOX IMVI melanoma, in the test with SNB-75 CNS, in the test with HL-60(TB) leukemia and in the test with COLO 205 colon was over 100 µM in each case. In addition, the TGI in the test on SF-295 CNS, in the test on NCI-H522 lung and in the test on A498 renal was over 100 µM each time.
`CCOP(=O)(OCC)OC1C=CC2CCC1C2` (stereo unspecified): the TGI in the test on MOLT-4 leukemia, with TK-10 renal, in the test with LOX IMVI melanoma, with SNB-75 CNS, in the test with HL-60(TB) leukemia and with COLO 205 colon was over 100 µM throughout. In addition, the TGI in the test with SF-295 CNS, in the test on NCI-H522 lung and with A498 renal was over 100 µM each time.
`COC1(OC)CC2C(=O)N(Cc3ccccc3)C1C=C2S(=O)(=O)c1ccccc1` (stereo unspecified): the TGI in the test with MOLT-4 leukemia turned out to be 50.3 µM; in the test with TK-10 renal, 49.1 µM; in the test on LOX IMVI melanoma it was 28.2 µM; in the test on SNB-75 CNS, 93.9 µM; in the test on HL-60(TB) leukemia, 36.7 µM; in the test with COLO 205 colon, 22 µM. Besides, the values for the TGI in the test with SF-295 CNS, in the test on NCI-H522 lung and in the test on A498 renal were over 100 µM, 27.7 µM and 45 µM, respectively.
In the case of `Cc1ccc(S(=O)(=O)c2ccc(N)cc2)cc1`, the TGI with MOLT-4 leukemia, in the test with TK-10 renal, in the test on SNB-75 CNS, with HL-60(TB) leukemia, in the test on SF-295 CNS and in the test with A498 renal was over 100 µM in each case.
Consider `Cc1cc(NS(=O)(=O)c2ccc(Nc3c4ccccc4nc4c(C(=O)N5CCN(CCO)CC5)ccc(Cl)c34)cc2)no1`, for which the TGI with MOLT-4 leukemia, in the test with TK-10 renal, in the test on SNB-75 CNS, in the test with HL-60(TB) leukemia, in the test on COLO 205 colon and with SF-295 CNS was over 100 µM in each case. Further, in the test with A498 renal, the TGI was over 100 µM.
Turning to `S=c1[nH]c(=S)c2nnn(-c3ccccc3)c2[nH]1`, the TGI with MOLT-4 leukemia, in the test on TK-10 renal, in the test on LOX IMVI melanoma, with SNB-75 CNS, in the test on HL-60(TB) leukemia and in the test with COLO 205 colon was over 100 µM throughout. Besides, the TGI in the test on NCI-H522 lung was over 100 µM.

Source of the values: PubChem BioAssay (NCI).
